From patent publication US8765799B2, “Streptospirole derivatives” (Sanofi, priority 2008, dated 2014)
≈ marks a conversion by molar mass, not a printed value.

Legend:
M. smegmatis (ATCC 607) = assay: Broth microdilution IC50 determination, M. smegmatis; assay type: cell-based, Mycobacterium smegmatis; conditions: Mycolicibacterium smegmatis, ATCC607, assay mode Lum. (ATP level), 48 h incubation
From the text: (§1) A test which is based on determining the intracellular concentration of ATP is employed for measuring the bacterial viability. It relies on the fact that intact living bacteria have higher intra-cellular ATP levels than bacterial cells which are damaged by the action of antimicrobials. The formulation of the reagent supports bacterial cell lysis and ATP is quantified luminometrically by a luciferin/luciferase reaction. The compounds of the formula (I) are used in a test as further outlined in Examples section in a single dose of 0.125-64μg/ml and a dose dependency is given as a IC50 value in Table 6. This Example describes the standard broth dilution method-microdilution used to determine the in vitro susceptibility of bacteria growing aerobically according to NCCLS M7-A7. The IC50 value of the compound to be tested is calculated as the inhibitory concentration of 50% at which 50% visible turbidity or the ATP level is inhibited. Compound stock solutions were prepared at concentrations of at least 1000μg/ml with methanol. After testing, the stock solution is aliquoted and stored at −80° C. Nystatin was dissolved in DMSO and then further dissolved in the respective culture medium. For every test strain following controls on each 384 well clear-transparent microtitration plate are needed: • drug-free growth control, • sterile control, and • Ciprofloxacin and Nystatin as reference compounds. For Mycobacterium smegmatis a special 384 well white microtitration plate was used. For an IC50 determination at least ten or twenty serial dilutions (geometrical dilution with factor 2) were prepared. [table] […] The exact colony number of each strain was determined by a surface culture method. […] Reading: The reading of the grown wells was done by means of a photometer for microtitration plates at 590 nm by absorbance mode. For Mycobacterium smegmatis the microtitration plates were measured by luminescence mode after incubation with 20μl BacTiter-Glo™/well for 5 minutes at room temperature protected from light. Evaluation: The IC50 values were determined in XLfit 4, model function 205.

S. aureus (ATCC 29213) = assay: Broth microdilution IC50 determination, S. aureus ATCC 29213; assay type: cell-based; conditions: Staphylococcus aureus, ATCC29213, assay mode Abs. (590 nm), 20 h incubation
Experimental: as §1, with “The” for “A test which is based on determining the intracellular concentration of ATP is employed for measuring the bacterial viability. It relies on the fact that intact living bacteria have higher intra-cellular ATP levels than bacterial cells which are damaged by the action of antimicrobials. The formulation of the reagent supports bacterial cell lysis and ATP is quantified luminometrically by a luciferin/luciferase reaction. The”, “For” for “For Mycobacterium smegmatis a special 384 well white microtitration plate was used. For”, “[table] The usual test concentrations range from 64 to 0.125μg/ml or 64 to 0.0001μg/ml for strong inhibition. At the specification of the concentration the inoculation volume has to be considered. The whole test volume (compound solution and inoculum) was prepared with 40μl and accordingly for Mycobacterium smegmatis 20μl. The serial dilutions with Ciprofloxacin and Nystatin were prepared in special 384 well clear-transparent microtitration plate and were transferred in each 384 well microtitration plate before inoculation.” for “[table]”

S. aureus (ATCC 33592) = assay: Broth microdilution IC50 determination, S. aureus ATCC 33592; assay type: cell-based; conditions: Staphylococcus aureus, ATCC33592, assay mode Abs. (590 nm)
Experimental: as §1, with “The” for “A test which is based on determining the intracellular concentration of ATP is employed for measuring the bacterial viability. It relies on the fact that intact living bacteria have higher intra-cellular ATP levels than bacterial cells which are damaged by the action of antimicrobials. The formulation of the reagent supports bacterial cell lysis and ATP is quantified luminometrically by a luciferin/luciferase reaction. The”, “For” for “For Mycobacterium smegmatis a special 384 well white microtitration plate was used. For”, “The usual test concentrations range from 64 to 0.125μg/ml or 64 to 0.0001μg/ml for strong inhibition. At the specification of the concentration the inoculation volume has to be considered. The whole test volume (compound solution and inoculum) was prepared with 40μl and accordingly for Mycobacterium smegmatis 20μl. The serial dilutions with Ciprofloxacin and Nystatin were prepared in special 384 well clear-transparent microtitration plate and were transferred in each 384 well microtitration plate before inoculation.” for “[table]”

E. faecalis (ATCC 29212) = assay: Broth microdilution IC50 determination, E. faecalis; assay type: cell-based; conditions: Enterococcus faecalis, ATCC29212, assay mode Abs. (590 nm), 20 h incubation
Experimental: as §1, with “The” for “A test which is based on determining the intracellular concentration of ATP is employed for measuring the bacterial viability. It relies on the fact that intact living bacteria have higher intra-cellular ATP levels than bacterial cells which are damaged by the action of antimicrobials. The formulation of the reagent supports bacterial cell lysis and ATP is quantified luminometrically by a luciferin/luciferase reaction. The”, “For” for “For Mycobacterium smegmatis a special 384 well white microtitration plate was used. For”, “[table] The usual test concentrations range from 64 to 0.125μg/ml or 64 to 0.0001μg/ml for strong inhibition. At the specification of the concentration the inoculation volume has to be considered. The whole test volume (compound solution and inoculum) was prepared with 40μl and accordingly for Mycobacterium smegmatis 20μl. The serial dilutions with Ciprofloxacin and Nystatin were prepared in special 384 well clear-transparent microtitration plate and were transferred in each 384 well microtitration plate before inoculation.” for “[table]”

[1] = tested on: S. pneumoniae (DSMZ 11865); assay: Broth microdilution IC50 determination, S. pneumoniae; assay type: cell-based; conditions: Streptococcus pneumoniae, DSMZ11865, assay mode Lum.
From the text: as §1, with “For” for “For Mycobacterium smegmatis a special 384 well white microtitration plate was used. For”, “The usual test concentrations range from 64 to 0.125μg/ml or 64 to 0.0001μg/ml for strong inhibition.” for “[table]”

S. pyogenes (ATCC 12344) = assay: Broth microdilution IC50 determination, S. pyogenes; assay type: cell-based; conditions: Streptococcus pyogenes, ATCC12344, assay mode Abs. (590 nm), 20 h incubation
Experimental: as §1, with “The” for “A test which is based on determining the intracellular concentration of ATP is employed for measuring the bacterial viability. It relies on the fact that intact living bacteria have higher intra-cellular ATP levels than bacterial cells which are damaged by the action of antimicrobials. The formulation of the reagent supports bacterial cell lysis and ATP is quantified luminometrically by a luciferin/luciferase reaction. The”, “For” for “For Mycobacterium smegmatis a special 384 well white microtitration plate was used. For”, “[table] The usual test concentrations range from 64 to 0.125μg/ml or 64 to 0.0001μg/ml for strong inhibition. At the specification of the concentration the inoculation volume has to be considered. The whole test volume (compound solution and inoculum) was prepared with 40μl and accordingly for Mycobacterium smegmatis 20μl. The serial dilutions with Ciprofloxacin and Nystatin were prepared in special 384 well clear-transparent microtitration plate and were transferred in each 384 well microtitration plate before inoculation.” for “[table]”

Structure (SMILES)	IC50 (M. smegmatis (ATCC 607)) [µg/mL]	IC50 (S. aureus (ATCC 29213)) [µg/mL]	IC50 (S. aureus (ATCC 33592)) [µg/mL]	IC50 (E. faecalis (ATCC 29212)) [µg/mL]	IC50 [1] [µg/mL]	IC50 (S. pyogenes (ATCC 12344)) [µg/mL]
CC[C@H](C)CCCc1c(O)ccc2c1O[C@]1(C2=O)C(Cl)=C(Cl)C(=O)N1C [(IV), Streptospirole C]	0.09 (≈ 0.226 µM)	0.005 (≈ 0.0126 µM)	0.003 (≈ 0.00753 µM)	0.07 (≈ 0.176 µM)	0.21 (≈ 0.527 µM)	0.04 (≈ 0.1 µM)
CC(C)CCCc1c(O)ccc2c1O[C@]1(C2=O)C(Cl)=C(Cl)C(=O)N1C [(III), Streptospirole B]	0.26 (≈ 0.677 µM)	0.05 (≈ 0.13 µM)	0.02 (≈ 0.052 µM)	0.59 (≈ 1.54 µM)	0.34 (≈ 0.885 µM)	0.12 (≈ 0.312 µM)
CCCCCCc1c(O)ccc2c1O[C@]1(C2=O)C(Cl)=C(Cl)C(=O)N1C [(II), Streptospirole A]	0.4 (≈ 1.04 µM)	0.08 (≈ 0.208 µM)	0.03 (≈ 0.0781 µM)	0.87 (≈ 2.26 µM)	0.28 (≈ 0.729 µM)	0.28 (≈ 0.729 µM)
